{"source": "patent US20110257139A1", "about": "“TREATMENT OF DIARRHOEA” (ROYAL COLLEGE OF SURGEONS IN IRELAND, priority 2008, published 2011)", "key": {"[1]": {"tested_on": "T84 cells", "assay": "Cl^− secretory (Isc) responses of T84 cell monolayers in Ussing chambers", "assay_type": "cell-based", "conditions": "for Isc (Cl^− secretory) response to carbachol (CCh) / Isc (Cl^− secretory) response to forskolin: T84 monolayers pretreated with 1 μM for 24 hrs; for Isc (Cl^− secretory) response to carbachol (CCh): carbachol 100 μM; for Isc (Cl^− secretory) response to forskolin: forskolin 10 μM", "procedure": "Measurements of chloride secretion: Cultured T84 epithelial cells were employed as a model of the colonic epithelium. T84 cells were grown as monolayers on filter supports. When grown in this way T84 cells retain many of the characteristics of native intestinal epithelium and are widely considered as being among the best reductionist models for analysing intestinal epithelial secretory responses. […] After this time they were washed of GW 4064, mounted in Ussing chambers, and voltage-clamped to zero potential difference. Under these conditions, transepithelial ion transport can be measured as changes in short-circuit current (Isc) and such changes in Isc across T84 cells have been established as being wholly due to Cl^− ion secretion. After mounting the cells in Ussing chambers we measured Cl^− secretory responses to both the calcium- and cAMP-dependent agonists, carbachol (100 μM) and forskolin (10 μM), respectively."}, "[2]": {"tested_on": "T84 cells", "assay": "Transepithelial conductance of T84 monolayers as a measure of cell viability", "assay_type": "cell-based", "conditions": "various concentrations for 24 hrs", "procedure": "Monolayers were then mounted in Ussing chambers and transepithelial conductance measurements were made as a measure of cell viability (n=4-13). Only at concentrations>10 μM did GW 4064 exert toxic effects on T84 cells. FIG. 5."}, "[3]": {"tested_on": "Na^+/K^+ ATPase pump", "assay": "Abundance (western blotting) and surface expression (biotinylation) of Na^+/K^+ ATPase pump in T84 cells", "assay_type": "cell-based", "conditions": "5 μM, 24 hrs", "procedure": "Western Blotting: T84 monolayers were washed with ice-cold PBS and lysed (1% Nonidet P-40, 150 mmol/L NaCl, 50 mmol/L Tris Base, 1×Complete mini EDTA free protease inhibitor tablet, 0.1 mg/l mL PMSF, 1 mmol/L Na3VO4). Lysates were collected, centrifuged at 15,294×g for 10 minutes at 4° C., the pellet discarded, and the supernatant sonicated with 3×10 second pulses in order to disrupt membrane proteins. Samples were normalized for protein content and 2× gel loading buffer (50 mM Tris HCl, 100 mM DTT, 40% glycerol and 4% SDS) was added. Samples were then heated at 95° C. for 5 min, separated by sodium dodecyl sulphate polyacrylamide gel electrophoresis and transferred to PVDF membranes. Membranes were pre-blocked in 5% blocking buffer (Marvel in PBS) for 60 minutes at room temperature followed by incubation with primary antibody in 5% blocking buffer overnight at 4° C. […] After further washing (×4) in TBST, immunoreactive proteins were detected by enhanced chemiluminescence (Amersham Biosciences, UK).\nCell Surface Biotinylation: Following treatment T84 cell monolayers were washed ×3 in ice-cold PBS and freshly prepared biotinylation buffer (1 mg/mL sulfo-NHS-biotin (Pierce) in PBS) was added basolaterally. […] Na^+/K^+-ATPase □ subunit was detected by western blot analysis as described above."}, "[4]": {"tested_on": "T84 cells", "assay": "Cellular ATP levels in T84 cells (ENLITEN ATP Assay)", "assay_type": "cell-based", "conditions": "5 μM, 24 hrs", "procedure": "Cells were then lysed with hypotonic lysis buffer (2 mM EDTA, 100 mM Trizma base, brought to pH 7.75 with acetic acid) and frozen at −80° C. The lysate was later assayed for ATP content using the ENLITEN® ATP Assay System (Promega, Madison, Wis.)."}, "[5]": {"tested_on": "K^+ channel conductances", "assay": "Basolateral K^+ conductance in T84 monolayers (Ussing chambers)", "assay_type": "cell-based", "conditions": "5 μM, 24 hrs", "procedure": "To measure basolateral K^+ conductance T84 cell monolayers in Ussing chambers were apically permeabilized with amphotericin B (50 μmol/L). A K^+ gradient (123.2-5.2 mmol/L) was created across the basolateral membrane by addition of a high K^+ (123.2 mmol/L) Ringers solution, in which NaCl is substituted with K^+-gluconate, to the apical reservoir. Ouabain (100 μmol/L) was added basolaterally to inhibit Na^+/K^+-ATPase pump activity. Under these conditions changes in Isc are wholly reflective of changes in basolateral K^+ conductance (IK^+)."}, "[6]": {"tested_on": "mouse colon", "assay": "Ex vivo Isc measurements in muscle-stripped colon after intraperitoneal dosing of mice", "conditions": "100 mg/kg intraperitoneally, 24 hrs", "procedure": "Animal Studies: Male C57BL6 mice were bred and maintained in an environmentally controlled animal facility at Beaumont Hospital. Experiments were performed on 6-9 week old animals and were in compliance with Irish Department of Health and Children regulations and approved by the Beaumont Hospital Ethics Committee. […] The distal colon was removed, stripped of underlying smooth muscle, and mounted in Ussing chambers (window area=0.3 cm^2). Results were normalized and expressed as ΔIsc (μA/cm^2).\nAdministration of a potent and selective FXR agonist inhibits Cl^− secretory responses in mouse colon. FIG. 10."}}}
{"substance": "GW4064", "values": [{"measurement": "CCh-induced Cl^− secretory responses", "setting": "[1]; GW4064 5 μM, 24 hrs", "result": "inhibited"}, {"measurement": "Isc (Cl^− secretory) response to carbachol (CCh)", "setting": "[1]", "result": "significantly attenuates"}, {"measurement": "Isc (Cl^− secretory) response to carbachol (CCh)", "setting": "[1]; listed as GW 4064", "result": "significantly reduce"}, {"measurement": "Isc (Cl^− secretory) response to forskolin", "setting": "[1]", "result": "significantly attenuates"}, {"measurement": "Isc (Cl^− secretory) response to forskolin", "setting": "[1]; listed as GW 4064", "result": "significantly reduce"}, {"measurement": "Time-dependence of attenuation of Cl^− secretory responses to CCh", "setting": "[1]; pretreated 5 μM for various periods of time, CCh 100 μM", "result": "attenuates Cl^− secretion in a time-dependent fashion"}, {"measurement": "Concentration-dependence of antisecretory actions (Cl^− secretory responses to CCh and forskolin)", "setting": "[1]; pretreated 0.1-10 μM for 24 hrs", "result": "concentration-dependent"}, {"measurement": "Concentration exerting toxic effects on T84 cells (transepithelial conductance)", "setting": "[2]", "result": "> 10", "unit": "µM"}, {"measurement": "Cellular abundance of the catalytic α subunit of Na^+/K^+ ATPase (western blotting)", "setting": "[3]", "result": "does not alter"}, {"measurement": "Surface expression of Na^+/K^+ ATPase pump (biotinylation)", "setting": "[3]", "result": "does not alter"}, {"measurement": "Cellular ATP levels", "setting": "[4]", "result": "does not alter"}, {"measurement": "K^+ channel conductances", "setting": "[5]", "result": "did not significantly alter"}, {"measurement": "Ex vivo Isc response of colon to CCh", "setting": "[6]", "result": "significantly attenuated"}, {"measurement": "Ex vivo Isc response of colon to forskolin", "setting": "[6]", "result": "significantly attenuated"}]}
